Data as given in patent US20230116733A1, “NOVEL INDAZOLE DERIVATIVE AND USE THEREOF” (KOREA RESEARCH INSTITUTE OFCHEMICAL TECHNOLOGY, priority 2019, published 2023).
Where a name gives a salt, the structure may show the parent alone. Read-outs that look alike come from different tables or passages of the source.

Legend:
HepG2 = assay: Assay for anticancer activity, cell viability (Cell Counting Kit-8); assay type: cell-based; conditions: HepG2 cells, 10 μM compound, 3 days
Protocol: (§1) Assay for anticancer activity was conducted as follows. Corresponding cancer cells were seeded at a density of 4,000 cells/well into 96-well plates and stabilized for 24 hours. Thereafter, the cells in each well were treated with 10 μM of the each of the compounds for 3 days. Then, cell viability was assayed using Cell Counting Kit-8 from Dojindo.

A549 = assay: as above; assay type: cell-based; conditions: A549 cells, 10 μM compound, 3 days
Protocol: as §1

TRIB2 = biological target: T1, TRIB2 (Homo sapiens, UniProt Q92519); assay: TRIB2 kinase activity assay (Eurofins, 33P-ATP filter binding); assay type: biochemical; design: purchased Eurofins
T1 sequence (Q92519 1-343): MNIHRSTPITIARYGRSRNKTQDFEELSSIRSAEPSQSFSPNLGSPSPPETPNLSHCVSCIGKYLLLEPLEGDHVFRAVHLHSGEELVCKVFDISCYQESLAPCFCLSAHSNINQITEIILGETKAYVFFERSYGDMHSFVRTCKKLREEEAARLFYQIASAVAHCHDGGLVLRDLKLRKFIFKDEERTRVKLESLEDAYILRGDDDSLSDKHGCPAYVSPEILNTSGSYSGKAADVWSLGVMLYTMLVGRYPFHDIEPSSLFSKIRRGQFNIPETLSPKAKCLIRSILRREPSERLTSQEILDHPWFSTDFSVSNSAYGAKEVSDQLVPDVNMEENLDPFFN
Protocol: TRIB2 kinase activity assay was conducted in Eurofins. […] Afterward, the reaction was terminated with 0.5% phosphoric acid.

[1] = human TRIB2, 15 μM gamma-33P-ATP, 120 minutes at room temperature, read-out: TRIB2 Kimase activity assay IC50

Structure (SMILES)	Cell viability (% of Con. 10 μM) HepG2 (HepG2)	Cell viability (% of Con. 10 μM) A549 (A549)	IC50 (TRIB2; [1])	IC50 (TRIB2)
CC(C)n1cc(-c2ccc3[nH]nc(C(=O)Nc4ccncc4)c3c2)cn1 [Compound 28, 5-(1-isopropyl-1H-pyrazol-4-yl)-N-(pyridin-4-yl)-1H-indazole-3-carboxamide]	16 % of Con.	17 % of Con.	10 to 100 nM	
O=C(NC1CCNC1)c1n[nH]c2ccc(-c3cccnc3F)cc12 (stereo not drawn) [Compound 20, 5-(2-fluoropyridin-3-yl)-N-(pyrrodin-3-yl)-1H-indazole-3-carboxamide]			10 to 100 nM	
O=C(NC1CCN(C(=O)c2ccccc2)CC1)c1nn(C(=O)c2ccccc2)c2ccc(-c3cccnc3F)cc12 [Compound 10, 1-benzoyl-N-(1-benzoylpiperidin-4-yl)-5-(2-fluoropyridin-3-yl)-1H-indazole-3-carboxamide]			10 to 100 nM	
O=C(Nc1ccncc1)c1n[nH]c2ccc(-c3cnn(C4CCNCC4)c3)cc12 [Compound 73, 5-(1-(piperidin-4-yl)-1H-pyrazol-4-yl)-N-(pyridin-4-yl)-1H-indazole-3-carboxamide hydrochloride]	36 % of Con.	49 % of Con.		10 to 100 nM
CC1(C)NCCc2ccc(NC(=O)c3n[nH]c4ccc(-c5cccnc5F)cc34)cc21 [Compound 59, N-(1,1-dimethyl-1,2,3,4-tetrahydroisoquinolin-7-yl)-5-(2-fluoropyridin-3-yl)-1H-indazole-3-carboxamide]	6 % of Con.	2 % of Con.	1 to 10 nM	
CC1(C)Cc2ccc(NC(=O)c3n[nH]c4ccc(-c5cccnc5F)cc34)cc2CN1 [Compound 71, N-(3,3-dimethyl-1,2,3,4-tetrahydroisoquinolin-7-yl)-5-(2-fluoropyridin-3-yl)-1H-indazole-3-carboxamide]	9 % of Con.	10 % of Con.	1 to 10 nM	
O=C(N[C@H]1CC[C@H](O)CC1)c1n[nH]c2ccc(-c3cccnc3F)cc12 [Compound 16, 5-(2-fluoropyridin-3-yl)-N-((1r,4r)-4-hydroxycyclohexyl)-1H-indazole-3-carboxamide]			100 to 1000 nM	
CC1NCCc2ccc(NC(=O)c3n[nH]c4ccc(-c5cccnc5F)cc34)cc21 (stereo not drawn) [Compound 63, 5-(2-fluoropyridin-3-yl)-N-(1-methyl-1,2,3,4-tetrahydroisoquinolin-7-yl)-1H-indazole-3-carboxamide]	7 % of Con.	4 % of Con.	1 to 10 nM	
O=C(c1n[nH]c2ccc(-c3cccnc3F)cc12)N1CCc2ccccc2C1 [Compound 21, (3,4-dihydroisoquinolin-2-(1H)-yl)(5-(2-fluoropyridin-3-yl)-1H-indazol-3-yl)methanone]			100 to 1000 nM	
O=C(Nc1ccc2c(c1)CNCC2)c1n[nH]c2ccc(-c3cccnc3F)cc12 [Compound 55, 5-(2-fluoropyridin-3-yl)-N-(1,2,3,4-tetrahydroisoquinolin-7-yl)-1H-indazole-3-carboxamide hydrochloride]	12 % of Con.	10 % of Con.	1 to 10 nM	
O=C(Nc1ccc2c(c1)CCNC2)c1n[nH]c2ccc(-c3cccnc3F)cc12 [Compound 64, 5-(2-fluoropyridin-3-yl)-N-(1,2,3,4-tetrahydroisoquinolin-6-yl)-1H-indazole-3-carboxamide]	7 % of Con.	8 % of Con.	1 to 10 nM	
O=C(Nc1ccncc1)c1n[nH]c2ccc(-c3cnn(Cc4ccccc4)c3)cc12 [Compound 33, 5-(1-benzyl-1H-pyrazol-4-yl)-N-(pyridin-4-yl)-1H-indazole-3-carboxamide]		20 % of Con.	1 to 10 nM	
O=C(Nc1ccncc1)c1nn(C2CCCCO2)c2ccc(-c3cccnc3F)cc12 (stereo not drawn) [Compound 66, 5-(2-fluoropyridin-3-yl)-N-(pyridin-4-yl)-1-(tetrahydro-2H-pyran-2-yl)-1H-indazole-3-carboxamide]	11 % of Con.	55 % of Con.		10 to 100 nM
N[C@H]1CC[C@H](NC(=O)c2n[nH]c3ccc(-c4cccnc4F)cc23)CC1 [Compound 19, N-((1r, 4r)-4-aminocyclohexyl)-5-(2-fluoropyridin-3-yl)-1H-indazole-3-carboxamide]			100 to 1000 nM	
O=C(NC1CCN(C(=O)c2ccccc2)CC1)c1n[nH]c2ccc(-c3cccnc3F)cc12 [Compound 12, N-(1-benzoylpiperidin-4-yl)-5-(2-fluoropyridin-3-yl)-1H-indazole-3-carboxamide]			10 to 100 nM	
O=C(NC1CCNCC1)c1n[nH]c2ccc(-c3ccnc(F)c3)cc12 [Compound 13, 5-(2-fluoropyridin-4-yl)-N-(piperidin-4-yl)-1H-indazole-3-carboxamide]			10 to 100 nM	
O=C(Nc1ccc2c(c1)CN(C(=O)C(F)(F)F)CC2)c1nn(C2CCCCO2)c2ccc(-c3cccnc3F)cc12 (stereo not drawn) [Compound 53, 5-(2-fluoropyridin-3-yl)-1-(tetrahydro-2H-pyran-2-yl)-N-(2-(2,2,2-trifluoroacetyl)-1,2,3,4-tetrahydroisoquinolin-7-yl)-1H-indazole-3-carboxamide]	10 % of Con.	13 % of Con.	1 to 10 nM	
N[C@H]1CC[C@@H](NC(=O)c2n[nH]c3ccc(-c4cccnc4F)cc23)CC1 [Compound 18, N-((1s, 4s)-4-aminocyclohexyl)-5-(2-fluoropyridin-3-yl)-1H-indazole-3-carboxamide]			100 to 1000 nM	
O=C(NCc1ccncc1)c1n[nH]c2ccc(-c3cccnc3F)cc12 [Compound 51, 5-(2-fluoropyridin-3-yl)-N-(pyridin-4-ylmethyl)-1H-indazole-3-carboxamide]	37 % of Con.	44 % of Con.	10 to 100 nM	
O=C(Nc1ccc2c(c1)CN(C(=O)C(F)(F)F)CC2)c1n[nH]c2ccc(-c3cccnc3F)cc12 [Compound 24, 5-(2-fluoropyridin-3-yl)-N-(2-(2,2,2-trifluoroacetyl)-1,2,3,4-tetrahydroisoquinolin-7-yl)-1H-indazole-3-carboxamide]	10 % of Con.		1 to 10 nM	
Cn1ncc2c(NC(=O)c3n[nH]c4ccc(-c5cccnc5F)cc34)ccnc21 [Compound 65, 5-(2-fluoropyridin-3-yl)-N-(1-methyl-1H-pyrazolo[3,4-b]pyridin-4-yl)-1H-indazole-3-carboxamide]	28 % of Con.	24 % of Con.	10 to 100 nM	
O=C(Nc1ccncc1)c1n[nH]c2ccc(-c3ccc(N4CCNCC4)cc3)cc12 [Compound 46, 5-(4-(piperazin-1-yl)phenyl)-N-(pyridin-4-yl)-1H-indazole-3-carboxamide hydrochloride]	46 % of Con.	58 % of Con.	10 to 100 nM	
O=C(Nc1ccncc1)c1n[nH]c2ccc(-c3cn[nH]c3)cc12 [Compound 26, 5-(1H-pyrazol-4-yl)-N-(pyridin-4-yl)-1H-indazole-3-carboxamide]	24 % of Con.	30 % of Con.	10 to 100 nM	
O=C(NC1CCN(C(=O)C2CC2)CC1)c1nn(C(=O)C2CC2)c2ccc(-c3cccnc3F)cc12 [Compound 11, 1-(cyclopropanecarbonyl)-N-(1-(cyclopropanecarbonyl)piperidin-4-yl)-5-(2-fluoropyridin-3-yl)-1H-indazole-3-carboxamide]			100 to 1000 nM	
O=C(NC1CCCCC1)c1n[nH]c2ccc(-c3cccnc3F)cc12 [Compound 14, N-Cyclohexyl-5-(2-fluoropyridin-3-yl)-1H-indazole-3-carboxamide]			100 to 1000 nM	
O=C(NCCN1CCOCC1)c1n[nH]c2ccc(-c3cccnc3F)cc12 [Compound 22, 5-(2-fluoropyridin-3-yl)-N-(2-morpholinoethyl)-1H-indazole-3-carboxamide]			100 to 1000 nM	
O=Cc1cc2c(cc1-c1ccc3[nH]nc(C(=O)Nc4ccncc4)c3c1)OCO2 [Compound 52, 5-(6-formylbenzo[d][1,3]dioxol-5-yl)-N-(pyridin-4-yl)-1H-indazole-3-carboxamide]	32 % of Con.	39 % of Con.		10 to 100 nM
